We go through 2 molecules from PMC4628094, “In Vitro Assessment of Uptake and Lysosomal Sequestration of Respiratory Drugs in Alveolar Macrophage Cell Line NR8383” (Pharmaceutical Research, 2015).

The structures appear in SMILES notation. Read-outs that look alike come from different tables or passages of the source. Marks after values point to notes of the source that are not given here.

For one data set, the system named is NR8383 cell line. The arrangement: method as in ref (11) (a number printed in a supplementary file, which may have a reference list of its own: not looked up in the article's list). To be noted: NH4Cl 10 mM, drug 50 µM, 120 min; ref (11); cited from earlier work.
For data set [1], the system named is Lung tissue slices from male Wistar rats. The arrangement: method as in ref (8) (a number printed in a supplementary file, which may have a reference list of its own: not looked up in the article's list). The conditions noted are these: NH4Cl 20 mM, drug 5 µM, 60 min, ref (8); cited from earlier work.
Data set [2] shares this test system. The arrangement: method as in ref (9) (a number printed in a supplementary file, which may have a reference list of its own: not looked up in the article's list). To be noted: NH4Cl 20 mM, drug 5 µM, 60 min, ref (9); cited from earlier work.
Data set [3] relates to NR8383 cells. In words: Accumulation (Kp) in NR8383 over a concentration range, two-site binding model. To be noted: apparent saturable uptake equilibrium constant, two-site binding model, control.
In data set [4] the test system is Liver tissue slices from male Wistar rats. The arrangement: method as in ref (8) (a number printed in a supplementary file, which may have a reference list of its own: not looked up in the article's list). To be noted: NH4Cl 20 mM, drug 5 µM, 60 min, ref (8); cited from earlier work.
Data set [5] has as its system Lysosomes isolated from male Wistar rat liver. The arrangement: method as in ref (4) (a number printed in a supplementary file, which may have a reference list of its own: not looked up in the article's list). To be noted: 10 min, ref (4), cited from earlier work.
Data set [6] relates to Liver tissue slices from male Wistar rats. The arrangement: method as in ref (9) (a number printed in a supplementary file, which may have a reference list of its own: not looked up in the article's list). To be noted: NH4Cl 20 mM, drug 5 µM, 60 min, ref (9); cited from earlier work.
The subject of data set [7] is NR8383 cells.
Data set [8] concerns Liver tissue slices from male Wistar rats. The arrangement: method as in ref (14) (a number printed in a supplementary file, which may have a reference list of its own: not looked up in the article's list). To be noted: monensin 10 µM, drug 5 µM, 60 min, ref (14); cited from earlier work.
The subject of data set [9] is isolated perfused lungs of rats. To be noted: depending on concentration, ref ([37],[43],[44]); cited from earlier work.
The test system of data set [10] is Lung granule fraction containing lysosomes from male Wistar rats. The arrangement: method as in ref (6) (a number printed in a supplementary file, which may have a reference list of its own: not looked up in the article's list). The conditions noted are these: NH4Cl 10 mM, drug 1 µM, 10 min; ref (6); cited from earlier work.
Data set [11] concerns Brain slices from male Wistar rats. The arrangement: method as in ref (10) (a number printed in a supplementary file, which may have a reference list of its own: not looked up in the article's list). To be noted: drug 5 µM, 60 min, ref (10), cited from earlier work.
For data set [12], the system named is Lung tissue slices from male Wistar rats. The arrangement: method as in ref (5) (a number printed in a supplementary file, which may have a reference list of its own: not looked up in the article's list). To be noted: NH4Cl 20 mM, drug 5 µM, 60 min, ref (5); cited from earlier work.
Data set [13] relates to Liver tissue slices from male Wistar rats. The arrangement: method as in ref (5) (a number printed in a supplementary file, which may have a reference list of its own: not looked up in the article's list). The conditions noted are these: NH4Cl 20 mM, drug 5 µM, 60 min, ref (5); cited from earlier work.
In data set [14] the test system is Lung tissue slices from male Wistar rats. The arrangement: method as in ref (14) (a number printed in a supplementary file, which may have a reference list of its own: not looked up in the article's list). The conditions noted are these: monensin 10 µM, drug 5 µM, 60 min, ref (14); cited from earlier work.
Data set [15] concerns Lysosomes isolated from male Wistar rat liver. The arrangement: method as in ref (16) (a number printed in a supplementary file, which may have a reference list of its own: not looked up in the article's list). The conditions noted are these: nigericin […], drug 1 µM, 20 min, ref (16), cited from earlier work.
Data set [16] has as its system Primary rat cerebellar neurons. The arrangement: method as in ref (15) (a number printed in a supplementary file, which may have a reference list of its own: not looked up in the article's list). The conditions noted are these: drug 10^-4 µM, 30 min, ref (15), cited from earlier work.

As to `CC[C@H]1OC(=O)[C@H](C)C(=O)[C@H](C)[C@@H](O[C@@H]2O[C@H](C)C[C@H](N(C)C)[C@H]2O)[C@](C)(OC)C[C@@H](C)C(=O)[C@H](C)[C@H]2N(CCCCn3cnc(-c4cccnc4)c3)C(=O)O[C@]12C` [Telithromycin], the “Reduction in total uptake (%)” value in the data set on NR8383 cell line is 80^b %.
Regarding `CN(C)CCCN1c2ccccc2CCc2ccccc21` [Imipramine], the “Reduction in total uptake (%)” value was 35% in [1]; 49% in [2]; 57% in data set [4]; 70^b % in data set [5] (NH4Cl 50 mM, drug 10^-4 µM); 62% in data set [6]; 31% in data set [10]. Further, the entries for the “Reduction in total uptake (%)” value in data set [11] (NH4Cl 20 mM), in data set [12] and in data set [13] were 41%, 59% and 58%, respectively. In addition, in the data set on NR8383 cells [3], the KU1 worked out at 0.9 ± 0.3 µM. The “Reduction of total uptake (%)” value is recorded as 70^b % in data set [5] (nigericin 50 µM, drug 0.001 µM); 48% in data set [8]; 37% in data set [11] (monensin 10 µM); 64% in data set [14]; 99% in data set [15] (relative to control with ATP); 93% in [15] (relative to control without ATP). In addition, the “Reduction of total uptake (%)” value in data set [16] (monensin 10 µM) was 83%; in data set [16] (monensin […]) it was 50%. Further, the “cytotoxicity (LDH) compared to positive control” value with NR8383 cells [7] (drug 50 μM) and in the data set with NR8383 cells [7] (drug 100 μM) was “less than 1%” throughout. Besides, the “estimated Kp” value in data set [9] is reported as 17–44.
